Ends that are not written are not given here.
Key:
[1] = test system: BC cell lines (5637, T24, and 253J); assay: Flow cytometry and fluorescence microscopy, uptake of R11 in BC cell lines versus control cells; assay type: cell-based, human; settings: BC cell lines versus Raw264.7 and SV-HUC control cells, R11 100 nM
Experimental: (§1) Flow cytometry was used to measure the fluorescence signal. Cells were seeded in a 6‐well plate at 1.0 × 10^5 cells per well and treated with R11 peptides and a series of inhibitors for 4 h, including NaN3 (active uptake inhibitor, 20 mM), methyl‐β‐cyclodextrin (MβCD: lipid raft‐mediated endocytosis inhibitor, 5 µg mL^−1), EIPA (macropinocytosis inhibitor, […]), Chlorpromazine (CPZ: clathrin‐mediated endocytosis, 5 µg mL^−1) or Dynasore (dynamin‐dependent endocytosis inhibitor, […]) in serum‐free media at 37 °C or 4 °C for 4 h, respectively. Then, the cells were trypsinized, washed, and suspended in 1 mL PBS. The fluorescence intensity of 10 000 cells was measured using a BD LSR II flow cytometer.

[2] = test system: T24 cells; assay: Cellular uptake pathways, flow cytometry with endocytosis inhibitors; assay type: cell-based, human; settings: serum-free media
Experimental: as §1

[3] = test system: 253J cells; assay: Antibody block assay (integrin α2β1 antibody), R11 uptake by flow cytometry; assay type: cell-based, human; settings: Anti-integrin α2β1 5 ug/mL for 2 h
Experimental: (§2) Antibody integrin α2β1 (ab30483) used for blocking the binding motif was purchased from ABCAM. Cells were planted in the 6‐well plates and treated with Anti‐integrin α2β1 (5 ug/mL). After incubation for 2 h, the cells were treated with R11 peptides and collected. Then, the cells were trypsinized, washed, and suspended in 1 mL PBS. The fluorescence intensity of 10 000 cells was measured using flow cytometer.

[4] = test system: T24 cells; assay: as above; assay type: cell-based, human; settings: Anti-integrin α2β1 5 ug/mL for 2 h
Experimental: as §2

[5] = test system: Piezo1 in T24 cells; assay: Flow cytometry of Ca2+ signal and R11 uptake with Piezo1 agonist or inhibitor; assay type: cell-based, human; settings: for effect on R11 uptake efficiency and Ca2+ release: T24 cells exposed to R11, Yoda1 10 nM, GsMTx4 2.5 nM
[6] = test system: bladder tumors; assay: Mouse orthotopic BC model, IVIS imaging after intravesical instillation; assay type: in vivo; settings: female nude mice, orthotopic integrin β1-GFP BC model
Experimental: All the animal experiments were carried out following guidelines approved by the ethics committee of Xi'an Jiaotong University, Xi'an, China. Female nude mice aged 4–6 weeks were randomly sorted. After gaseous anesthesia, an intravenous indwelling needle lubricated with paraffin cotton was inserted into the bladder and fixed well. Then, the urine was removed, and the bladder was rinsed with PBS 3 times. Next, the abdominal skin was disinfected by iodine tincture and cut open for approximately 1 cm. GFP‐integrin β1 cells (1 × 10^6/mL) were injected into the bladder wall with an insulin needle under direct visualization. Last, the abdominal wall was stitched and bound with gauze. After 7 days, the effect of bladder tumor implantation was observed. After intravesical perfusion of R11 peptides or gold nanoparticles, tumor‐bearing mice were detected using an in vivo imaging system/IVIS (AniView) to take images. In addition, frozen sections of the tumors were stained with DAPI, and the fluorescence of each section of the tumor was analyzed by fluorescence microscopy.

[7] = target: T1, integrin β1 (standard of an integrin β1 ELISA kit) (UniProt P05556 21-728); assay: ELISA; integrin β1 standards (0.5 µg/mL) added to the microplate wells of an integrin β1 ELISA kit, in triplicate; R11-TRITC serially diluted in PBS (0.001-10 000 nM), 2 h at 37 °C; washed; fluorescence of the bound peptide read on a microplate reader; settings: both partners purified
T1 construct: integrin β1 (ITGB1), standard protein of a commercial ELISA kit; also called ITGB1; integrin β1 standards; source: bought: standard of the integrin β1 ELISA kit, Shanghai Westang Bio-Tech CO., LTD
T1 sequence (P05556 21-728): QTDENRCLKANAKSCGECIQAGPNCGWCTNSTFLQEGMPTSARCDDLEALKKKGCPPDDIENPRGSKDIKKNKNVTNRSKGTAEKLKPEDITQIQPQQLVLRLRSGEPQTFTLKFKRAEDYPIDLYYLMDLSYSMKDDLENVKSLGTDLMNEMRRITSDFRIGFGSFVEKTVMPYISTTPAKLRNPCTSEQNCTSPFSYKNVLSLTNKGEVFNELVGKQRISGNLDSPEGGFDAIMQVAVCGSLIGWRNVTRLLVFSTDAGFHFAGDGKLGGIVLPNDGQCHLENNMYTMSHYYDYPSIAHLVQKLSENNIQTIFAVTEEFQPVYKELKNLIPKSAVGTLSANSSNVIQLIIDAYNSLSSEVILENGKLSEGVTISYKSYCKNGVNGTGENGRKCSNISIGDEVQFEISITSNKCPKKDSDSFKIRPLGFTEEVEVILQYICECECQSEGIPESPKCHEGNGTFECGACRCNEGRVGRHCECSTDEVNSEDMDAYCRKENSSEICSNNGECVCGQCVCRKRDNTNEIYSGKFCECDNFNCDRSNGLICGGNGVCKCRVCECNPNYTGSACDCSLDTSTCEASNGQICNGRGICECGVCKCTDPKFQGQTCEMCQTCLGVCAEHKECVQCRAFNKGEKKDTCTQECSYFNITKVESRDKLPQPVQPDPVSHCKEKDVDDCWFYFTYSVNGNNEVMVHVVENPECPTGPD

Molecule: N=C(N)NCCC[C@H](NC(=O)[C@H](CCCNC(=N)N)NC(=O)[C@H](CCCNC(=N)N)NC(=O)[C@H](CCCNC(=N)N)NC(=O)[C@H](CCCNC(=N)N)NC(=O)[C@H](CCCNC(=N)N)NC(=O)[C@H](CCCNC(=N)N)NC(=O)[C@H](CCCNC(=N)N)NC(=O)[C@H](CCCNC(=N)N)NC(=O)[C@H](CCCNC(=N)N)NC(=O)[C@H](CCCNC(=N)N)NC(=O)CN)C(=O)O [R11, hendeca‐arginine peptide]
- fluorescence signal of R11 (uptake) [1]: stronger fluorescence signal in BC cell lines compared to control cells
- uptake of R11 with Dynasore ([2]; Dynasore 80 µmol mL^−1, 4 h): inhibited uptake partly
- uptake of R11 with EIPA ([2]; EIPA (macropinocytosis inhibitor) 10 µmol mL^−1, 4 h): suppressed nearly half
- uptake of R11 with NaN3 and 4 °C ([2]; NaN3 20 mM or 4 °C, 4 h): blocked
- uptake of R11 peptides after blocking integrin α2β1 [3]: completely inhibited
- uptake of R11 peptides after blocking integrin α2β1 [4]: completely inhibited
- Ca2+ signal ([5]; T24 cells, varying R11 concentrations): increased consistently with the concentration of R11 peptides
- identification of bladder tumors in vivo (IVIS) [6]: successfully identified bladder tumors in vivo but not adjacent kidney tissues

Molecule: Clc1cccc(Cl)c1CSc1nnc(-c2cnccn2)s1 [Yoda1]
- effect on R11 uptake efficiency and Ca2+ release [5]: enhanced both the uptake efficiency and Ca^2+ release

Molecule: GsMTx4
- effect on R11 uptake efficiency and Ca2+ release [5]: opposite effect

B1: hendeca-arginine peptide (R11), GRRRRRRRRRRR-TRITC (peptide)
peptide: GRRRRRRRRRRR-{TRITC}
notes: designed cell-penetrating peptide: glycine followed by 11 arginines; also called R11 peptides; arginine-rich peptides; source: synthetic peptide, synthesized and purified by GL Biochem Ltd (Shanghai, China)
- EC50 [7]: 5.97 nM

Source: article PMC11558097, “Enhanced Tumor‐Targeted Delivery of Arginine‐Rich Peptides via a Positive Feedback Loop Orchestrated by Piezo1/integrin β1 Signaling Axis” (Advanced Science, 2024)
